Test results reported in patent US20090197916A1, “SOLUBLE EPOXIDE HYDROLASE INHIBITORS FOR TREATMENT OF METABOLIC SYNDROME AND RELATED DISORDERS” (Arete Therapeutics, Inc, priority 2007, published 2009).
Each block holds one compound with its values, some of them ahead of it.

Experiments:
[1] = target: T1, PPARγ (Homo sapiens, UniProt P37231); assay: standard PPARγ activation assay; format: cell-based; settings: relative to standard reference
T1 sequence (P37231 1-505): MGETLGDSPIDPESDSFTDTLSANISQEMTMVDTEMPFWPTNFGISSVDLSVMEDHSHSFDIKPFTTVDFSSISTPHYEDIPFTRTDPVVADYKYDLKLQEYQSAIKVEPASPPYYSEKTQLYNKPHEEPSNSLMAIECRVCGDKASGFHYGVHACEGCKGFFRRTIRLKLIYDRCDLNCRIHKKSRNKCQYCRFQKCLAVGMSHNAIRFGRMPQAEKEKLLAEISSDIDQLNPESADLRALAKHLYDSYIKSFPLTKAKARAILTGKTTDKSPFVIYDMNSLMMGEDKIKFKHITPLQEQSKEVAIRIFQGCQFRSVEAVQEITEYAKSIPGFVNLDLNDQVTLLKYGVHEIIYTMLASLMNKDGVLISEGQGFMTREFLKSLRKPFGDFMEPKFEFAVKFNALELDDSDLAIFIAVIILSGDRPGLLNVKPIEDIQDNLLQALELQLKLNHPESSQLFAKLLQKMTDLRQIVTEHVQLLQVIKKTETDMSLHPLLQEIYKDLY

[2] = target: T2, sEH (Homo sapiens, UniProt P34913); assay: sEH inhibition, fluorescent assay with CMNPC substrate (percent inhibition and IC50); format: biochemical; settings: Concentration 2000 nM
T2 sequence (P34913 1-555): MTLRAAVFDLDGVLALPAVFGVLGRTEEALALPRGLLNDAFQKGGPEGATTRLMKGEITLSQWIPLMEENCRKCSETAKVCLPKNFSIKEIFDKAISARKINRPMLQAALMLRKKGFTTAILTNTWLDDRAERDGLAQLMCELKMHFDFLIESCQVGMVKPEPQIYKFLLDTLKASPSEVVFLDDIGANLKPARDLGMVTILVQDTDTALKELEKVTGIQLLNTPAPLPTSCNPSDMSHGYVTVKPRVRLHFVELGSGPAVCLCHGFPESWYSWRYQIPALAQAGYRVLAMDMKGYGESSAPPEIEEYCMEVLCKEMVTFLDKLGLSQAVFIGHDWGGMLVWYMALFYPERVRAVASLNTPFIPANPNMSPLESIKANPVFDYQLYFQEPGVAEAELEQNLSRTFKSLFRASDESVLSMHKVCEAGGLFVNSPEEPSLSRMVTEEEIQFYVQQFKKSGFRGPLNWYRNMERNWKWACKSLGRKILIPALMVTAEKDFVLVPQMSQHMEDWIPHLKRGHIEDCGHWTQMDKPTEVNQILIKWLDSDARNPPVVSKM
Method: The substrate for the reaction was:
Therefore, well A2 would refer to a well in the first row and second column of the plate.
In a black 96 well plate, all the wells are filled with 150 μL of buffer A (Buffer A: Bis/Tris HCl, 25 mM, pH 7.0 plus 0.1 mg/mL BSA). DMSO (2 microliters) was added in well A2 and A3, and then was added 2 μL of inhibitor solution in A1 and A4 through A12. […] The plate was incubated for 5 minutes in the plate reader at 30° C. During incubation, the working solution of substrate was prepared by mixing 3.68 mL of buffer A with 266 μL of 0.5 mM substrate solution. At t=0, 30 μL of working substrate solution was added and readings were started ([S]final: 5 μM).

[3] = target: T2, sEH; assay: sEH enzymatic assay (Compound 6); format: biochemical; settings: read-out: IC50 for inhibition of sEH, enzymatic assay
[4] = target: T2, sEH; assay: sEH cell based assay (Compound 6); settings: read-out: IC50 for inhibition of sEH, cell based assay
[5] = system: over 100 cardiovascular disease related targets, including hydroxy-methylglutaryl-coenzyme A (HMO CoA) reductase; assay: off-target screen assays; settings: concentration of 10 μM
[6] = pharmacokinetics in mice; format: in vivo; settings: mouse, plasma
[7] = target: T3, whole blood sEH activity (Mus musculus, UniProt P34914); assay: whole blood sEH activity in apoE KO mice, dosing with drinking water; format: in vivo; settings: treatment with drinking water
T3 construct: from tissue; host or cells: whole blood of apoE KO mice
T3 sequence (P34914 1-554): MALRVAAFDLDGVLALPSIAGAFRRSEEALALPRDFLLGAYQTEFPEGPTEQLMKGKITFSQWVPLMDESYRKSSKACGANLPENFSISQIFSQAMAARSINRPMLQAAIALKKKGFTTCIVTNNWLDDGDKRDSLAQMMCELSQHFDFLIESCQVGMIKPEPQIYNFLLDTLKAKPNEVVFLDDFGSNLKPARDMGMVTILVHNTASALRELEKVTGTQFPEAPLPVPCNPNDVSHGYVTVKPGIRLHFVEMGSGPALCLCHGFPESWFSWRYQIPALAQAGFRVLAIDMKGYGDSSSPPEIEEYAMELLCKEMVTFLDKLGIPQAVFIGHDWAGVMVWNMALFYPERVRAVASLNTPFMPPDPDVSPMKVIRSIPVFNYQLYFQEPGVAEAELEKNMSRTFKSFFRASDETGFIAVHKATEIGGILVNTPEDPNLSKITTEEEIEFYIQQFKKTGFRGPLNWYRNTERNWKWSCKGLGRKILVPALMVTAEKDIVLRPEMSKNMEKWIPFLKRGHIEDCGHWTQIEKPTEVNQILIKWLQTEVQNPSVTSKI

[8] = system: apoE deficient mice; assay: Model 3: angiotensin II-infused apoE deficient mice with carotid ligation; format: in vivo
Method: All protocols were approved by the institutional animal care and use committee at Arête Therapeutics. Six-month old male apoE deficient mice (The Jackson Laboratory, Bar Harbor, Me.) fed a normal chow were used in this study. Baseline blood pressure and body weight were measured before surgery. Animals were anesthetized by inhalation of 2% isoflurane. The left common carotid artery carefully dissected via a midline neck incision under a dissecting microscope, and the left common carotid artery was ligated with a 6-0 silk ligature just proximal to its bifurcation. At the time of ligation, animals were subcutaneously implanted with a minipump (model 2004, Durect Corp., Cupertino, Calif.) filled with Ang II (1.44 mg/Kg/day, Phoenix Pharmaceuticals, Burlingame, Calif.). The animals were randomly divided into 2 groups; Vehicle: drinking water containing 5% hydroxypropyl-beta-cyclodextrin (HPBCD) or Compound 6: drinking water containing 1.5 mg/ml Compound 6 in 5% HPBCD. Each experimental group included 11 animals. After 4 weeks of Ang TI infusion, systolic blood pressure was measured in conscious mice using a tail-cuff system (Kent Scientific Corporation, Torrington, Conn.), and the animals were euthanized. Blood samples were collected via cardiac puncture for the measurement of a serum cholesterol profile (IDEXX Veterinary Services, West Sacramento, Calif.) and serum inflammatory panel (Murigenics, Hayward, Calif.) using a mouse cytokine/chemokine panel kit (Millipore, Billerica, Mass.), and tissues were removed for analysis.
All results are presented as the mean and standard error (SEM). Comparison between the vehicle and Compound 6 treatment groups was performed using Student's t test. The percentage of mice that developed AAA was compared between the two groups using X^2 test.

PPARγ activation relative to troglitzone (100%) [1]: 28%
SMILES: CCCCCC1OC1C/C=C\C/C=C\C/C=C\CCCC(=O)O (centres unmarked) [14, 15 EET, reference compound]

inhibition at 2 µM [2]: 100%
IC50 [3]: 1.6 nM
IC50 [4]: 8.9 nM
PPARγ activation relative to troglitzone (100%) [1]: 11%
bioavailability ([6]; AUC oral dose relative to AUC intravenous dose): > 100%
half-life ([6]; intravenous administration, read-out: terminal half life (converted)): ~4 h
average plasma concentration [7]: 21 ± 1.8 µg/mL
SMILES: O=C(Nc1ccc(OC(F)(F)F)cc1)NC1CCN(C(=O)c2cccnc2)CC1 [Compound 6, 1-(1-nicotinoylpiperidin-4-yl)-3-(4-(trifluoromethoxy)phenyl)urea]
activity in off-target screen assays [5]: inactive
HDL levels compared to vehicle ([8]; 4 weeks): significantly higher
effect on blood pressure, body weights, and food consumption ([8]; 4 weeks): no statistical significant effect
ratio of LDL/HDL relative to vehicle group ([8]; 4 weeks): only half of that in vehicle group
total cholesterol level compared to vehicle ([8]; 4 weeks): significantly lower
triglyceride and glucose levels compared to vehicle ([8]; 4 weeks): no significant difference
Ratio of LDL/HDL ([8]; 4 weeks, vehicle 19.6 ± 1.5): 10.5 ± 1.5
body weight ([8]; 4 weeks, vehicle 27 ± 0.7): 28 ± 0.6 g
HDL ([8]; 4 weeks, vehicle 32 ± 3): 46 ± 4 mg/dL
Blood Glucose ([8]; 4 weeks, vehicle 216 ± 22): 185 ± 17 mg/dL
Triglyceride ([8]; 4 weeks, vehicle 301 ± 59): 258 ± 47 mg/dL
LDL ([8]; 4 weeks, vehicle 624 ± 70): 438 ± 28 mg/dL
Blood Pressure (mmHg) Baseline ([8]; Baseline, before surgery and treatment): 101 ± 2 mmHg
Blood Pressure (mmHg) End ([8]; End, after 4 weeks of Ang II infusion, vehicle 137 ± 3): 130 ± 4 mmHg
atherosclerosis progression and aneurysm formation ([8]; apoE deficient mice chronically treated with Ang II): attenuated
